Measurements taken from US6632794B1, “Insulin-like growth factor agonist molecules” (Genentech, Inc., priority 1997, dated 2003).
Where two headings read alike, the source gives them in different places. Values belong to the compound of their own block, whether it stands above or below them. Starred links: 1 amine or outer side, 2 acyl side, 3 side chain; linkers in the order of their positions; H or OH if unused. Positions of bridges follow the written chain, without caps; N, C: chain ends. Residues, ends and D or L forms follow the SMILES beside them. No end group written: not given here. Suc = O=C(CCC(=O)[*:2])[*:1]

Tests used:
[1] = biological target: T1, IGFBP-1 (Homo sapiens, UniProt P08833); assay: BIAcore competition assay, IGFBP-1 binding to IGF-I; conditions: for IGF-I Inhibition IC50 (114)/IC50 (mut) / IGF-I Inhibition IC50 (116)/IC50 (mut): g3 bp1-01 selectants by BIAcore, higher = better; for IGF-I Inhibition IC50 (114)/IC50 (mut): relative to bp1-14; for IGF-I Inhibition IC50 (116)/IC50 (mut): relative to bp1-16
T1 construct: biotin (chemical label, EZ-LINK NHS-SS-Biotin)
T1 sequence (P08833 26-259): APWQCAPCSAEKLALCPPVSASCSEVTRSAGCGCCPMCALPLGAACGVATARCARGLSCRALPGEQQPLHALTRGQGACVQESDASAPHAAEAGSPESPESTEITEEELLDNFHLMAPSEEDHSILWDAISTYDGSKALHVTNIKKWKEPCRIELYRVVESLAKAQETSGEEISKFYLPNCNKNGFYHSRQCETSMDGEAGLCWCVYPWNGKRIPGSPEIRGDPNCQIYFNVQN
Procedure: Two series of synthetic peptide variants were generated to determine which side chains of the bp1-01 peptide might contribute directly to binding IGFBP-1. In the first series an alanine-scanning approach (Cunningham and Wells, Science, 244: 1081-1085 (1989)) was used to remove that portion of each side chain beyond the beta carbon. The contribution of these atoms to the free energy of binding of the peptide to IGFBP-1 was then assessed by measuring the potency (IC50) of the variant for inhibiting IGFBP-1 binding to IGF-I or IGF-II in a BIAcore™competition assay, analogous to that described for IGFBP-3 (see Example 7).
(§1) Substitutions at the N-terminus or C-terminus yielded affinity improvements. […] All of these peptides had similar or improved apparent affinity for IGFBP-1 as compared with bp1-01 and bp1-02 and are thus expected to increase the availability of IGF-I in an in vitro cell culture assay.

[2] = biological target: IGFBP-3 (Homo sapiens, UniProt P17936); assay: BIAcore competition assay, IGFBP-3 binding to immobilized IGF-I; conditions: for IGF-I Inhibition IC50 (mut)/IC50 (wt): bp3-01-ox variants by BIAcore, wt = bp3-01-ox
Chain of IGFBP-3 (P17936 28-291): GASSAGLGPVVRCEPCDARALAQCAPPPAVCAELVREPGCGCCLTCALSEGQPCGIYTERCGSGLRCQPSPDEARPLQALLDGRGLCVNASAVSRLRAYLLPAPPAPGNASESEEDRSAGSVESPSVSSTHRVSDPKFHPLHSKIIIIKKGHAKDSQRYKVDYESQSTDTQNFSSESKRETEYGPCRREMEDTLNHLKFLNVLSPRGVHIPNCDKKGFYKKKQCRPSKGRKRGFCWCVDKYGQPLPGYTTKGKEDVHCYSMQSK
Procedure: A. BIAcore™ Competition Assay (for IGFBP-3 Binders)
IGF-I was immobilized on a dextran chip for inhibition assays using a BIAcore™ 2000 surface-plasmon-resonance device (BIAcore, Inc., Piscataway, N.J.) to measure free binding protein. […] Serial dilutions of peptide were mixed with a constant concentration (40 nM) of IGFBP-3. After incubation for >1 hour at room temperature, an aliquot of 20 μL was injected at a flow rate of 20 μL/min over the IGF-I chip. Following the injection, a response reading was taken to measure the relative amount of IGFBP-3 bound to the IGF-I.

[3] = biological target: T1, IGFBP-1; assay: Biotin-BP plate (ELISA) assay, biotinylated IGFBP-1 binding to IGF-I; conditions: C-terminal bp1-01 variants by ELISA
Procedure: 1. Biotin-BP Assay (for IGFBP-1 Binders)
For inhibition of IGFBP-1 binding, IGFBP-1 (as well as IGFBP-3 as a control) were biotinylated as described above. MAXISORP™plates were coated and blocked as described above, using 2 μg/mL IGF-I. In a separate plate, serial dilutions of peptide were premixed with a constant concentration (20 nM) of biotinylated IGFBP-1. After 20 min. at room temperature, the mixture was added to the IGF-I plate. The peptide/IGFBP mix was then removed and the plate was washed ten times with PBS buffer containing 0.05% TWEEN-20™ surfactant. Bound biotin-IGFBP-1 was then detected using streptavidin-conjugated horse radish peroxidase, and a chromogenic substrate.
A second series of peptides made use of non-natural amino acids to probe whether other structural features such as an added methyl group at the alpha carbon, or an isomer (D-alanine) could affect peptide binding to IGFBP-1.
as §1

[4] = system: dwarf rats; assay: Long-term administration to GH-deficient dwarf (dw/dw) rats; type: in vivo, rat
From the text: Young female dwarf rats (11-12 wk of age, 115-140 g) were bred by homozygous mating (Charles Rivers Laboratories) and delivered to the Genentech Animal House where they were housed five per cage on polystyrene chips and fed a standard animal chow and water ad libitum, and kept in a room of constant humidity and with controlled temperature and lighting. The animals were weighed, and based on uniformity of body weight, 37 of the animals were selected and randomized into treatment groups and cages to give six treatment groups of equal initial body weights (approximately 120 g).
The study consisted of six groups of rats with six or seven rats per group.
The mutant (Leu^24,Ala^31)hIGF-I and native sequence recombinant human IGF-I were administered by osmotic minipumps (ALZET 2001™, Alza, Palo Alto, Calif.) which were placed in a subcutaneous tunnel in the dorsal neck region while the rats were anesthetized with KETAMINE/XYLAZINE™ anesthesia. The pumps were filled with solutions so that the calculated daily dose was 120 μg per rat per day (1 mg/kg/day), assuming that the pump delivered as per the manufacturer's description (24 μl of solution per day).
Recombinant human GH (50 μg/day) was administered for eight days by twice daily sc injection, with each injection being of 25 μg in a volume of 100 μl.
Body weights were measured daily in the morning. After 8 days the animals were anesthetized using CO2 and exsanguinated by cardiac puncture. The remaining blood was allowed to clot and serum was separated and stored for further analysis.
(§2) Spleen, thymus, heart, liver, kidney, and perirenal fat were removed and weighed. The tibia was removed and fixed in neutral buffered formalin for histological measurement of epiphyseal plate width.
Serum chemistries were measured using a TECHNICON CHEM I PLUS™ analyzer. Serum insulin concentration was measured using an RIA kit supplied by Linco, Inc. To measure the IGF-I concentrations the serum was extracted using acid ethanol and the supernatant diluted to neutrality and assayed for IGF-I by RIA. The concentration of rat IGF-I in serum extract was measured by RIA using a kit from Diagnostic Systems Laboratories, Inc. Human IGF-I concentration was measured by RIA at Genentech, Inc.
Tibia were sectioned longitudinally, stained with TOLULENE BLUE™ stain and mounted on microscope slides. The tibial epiphyseal plate width was measured using an ocular micrometer attached to a microscope.
Data were analyzed statistically by analysis of variance using one-factor ANOVA followed by Duncan's Range Test.

[5] = system: hypophysectomized rats; assay: Long-term administration to hypophysectomized rats; type: in vivo, rat; conditions: one week
From the text: Young female SD rats were hypophysectomized at Taconic Laboratories and delivered several days later. The rats were then weighed frequently and those whose weight increased or decreased by more than 7 grams between 2 and 3 weeks following hypophysectomy were excluded from the study. Twenty-five rats were grouped randomly into five groups based on their body weight, and then randomly assigned to cages, with four rats per cage. The animals were allowed ad libitum access to food and water and housed in a room controlled for temperature and lighting.
1) Excipient pump, excipient injections;
2) (Leu^24,Ala^31)hIGF-I (10 μg/day, by SC minipump), excipient injections;
3) (Leu^24,Ala^31)hIGF-I (50 μg/day, by SC minipump), excipient injections;
4) Recombinant human GH (NUTROPIN™ brand from Genentech, Inc., 20 μg/day, by SC injection, two injections each of 10 μg/day), excipient minipump; or
5) (Leu^24,Ala^31)hIGF-I (50 μg/day, by SC minipump) plus recombinant human GH (20 μg/day, by SC injection, two injections each of 10 μg/day).
The rats were dosed for one week.
The mutant (Leu^24,Ala^31)hIGF-I was administered by osmotic minipumps (ALZET 2001™, Alza, Palo Alto, Calif.), which were placed in a subcutaneous tunnel in the dorsal neck region of the rats while they were anesthetized with KETAMINE™/XYLAZINE™ anesthesia. The pumps were filled with solutions so that the calculated daily dose was 50 μg or 10 μg, assuming that 24 μl of solution was delivered each day for one week.
Recombinant human GH was administered for one week by twice daily SC injections of 10 μg in 100 μl volume.
Body weights were measured daily in the morning. At the end of the week of dosing the animals were anesthetized via CO2 and exsanguinated via cardiac puncture. The remaining blood was allowed to clot and serum was separated and stored for further analysis.
as §2
Serum chemistries were measured on an automated Chem I analyzer. Serum insulin concentration was measured using an RIA Kit supplied by Linco, Inc. To measure the IGF-I concentrations the serum was extracted using acid ethanol and the supernatant diluted to neutrality and assayed for IGF-I by RIA.
Tibia were sectioned longitudinally, stained with Toluene Blue, and mounted on microscope slides. The tibial epiphyseal plate width was measured using an ocular micrometer attached to a microscope.
Data were analyzed statistically by analysis of variance using one factor and two factor ANOVA.

[6] = bp3-01-ox variants by BIAcore competition assay, read-out: IGF-I Inhibition IC50
[7] = serum at sacrifice, 8 days, Means ± SEM

IGF-I Inhibition IC50 (114)/IC50 (mut) [1]: 2.6
IGF-I Inhibition IC50 (116)/IC50 (mut) [1]: 12
Compound: CC(C)C[C@@H]1NC(=O)[C@H](Cc2c[nH]c3ccccc23)NC(=O)[C@H](CCC(N)=O)NC(=O)[C@H](CC(C)C)NC(=O)[C@@H]2CCCN2C(=O)CNC(=O)[C@H](C)NC(=O)[C@H](CCCNC(=N)N)NC(=O)[C@@H](NC(=O)[C@@H](NC(=O)[C@H](CCCNC(=N)N)NC(=O)[C@H](C)NC(=O)[C@@H](N)CCC(=O)O)C(C)C)CSSC[C@@H](C(=O)N[C@@H](CCC(=O)O)C(=O)N[C@@H](CCCCN)C(=O)N[C@@H](Cc2ccc(O)cc2)C(=O)N[C@@H](Cc2ccccc2)C(N)=O)NC1=O [bp1-20] (H-EARVCRAGPLQWLCEKYF-NH2; disulfide 5-14)

affinity improvement compared with bp1-14 (18-mer) ([1]; IGFBP-1): 3 fold
IGF-I Inhibition IC50 (114)/IC50 (mut) [1]: 3.2
IGF-I Inhibition IC50 (116)/IC50 (mut) [1]: 15
Compound: CC(C)C[C@@H]1NC(=O)[C@H](Cc2c[nH]c3ccccc23)NC(=O)[C@H](CCC(N)=O)NC(=O)[C@H](CC(C)C)NC(=O)[C@@H]2CCCN2C(=O)CNC(=O)[C@H](C)NC(=O)[C@H](CCCNC(=N)N)NC(=O)[C@@H](NC(=O)CNC(=O)[C@@H](NC(=O)[C@H](CCC(=O)O)NC(=O)[C@@H](N)CO)C(C)C)CSSC[C@@H](C(=O)N[C@@H](CCC(=O)O)C(=O)N[C@@H](CCCCN)C(=O)N[C@@H](Cc2ccc(O)cc2)C(=O)N[C@@H](Cc2ccccc2)C(=O)N[C@@H](CO)C(=O)N[C@H](C(=O)N[C@@H](Cc2ccc(O)cc2)C(N)=O)[C@@H](C)O)NC1=O [bp1-21A] (H-SEVGCRAGPLQWLCEKYFSTY-NH2; disulfide 5-14)

IC50 [2, 6]: 0.66 µM
IGF-I Inhibition IC50 (mut)/IC50 (wt) [2]: 0.33
Compound: CC(=O)N[C@@H](CO)C(=O)N[C@@H](CCC(=O)O)C(=O)N[C@@H](CCC(=O)O)C(=O)N[C@H](C(=O)N[C@H]1CSSC[C@@H](C(=O)N[C@@H](CC(N)=O)C(N)=O)NC(=O)[C@H](CC(C)C)NC(=O)[C@H](Cc2ccc(O)cc2)NC(=O)[C@H](Cc2c[nH]c3ccccc23)NC(=O)[C@H](CCC(=O)O)NC(=O)[C@H](C)NC(=O)[C@H](C(C)C)NC(=O)[C@@H]2CCCN2C(=O)[C@H](Cc2c[nH]c3ccccc23)NC1=O)C(C)C [bp3-40] (Ac-SEEVCWPVAEWYLCN-NH2; disulfide 5-14 (inferred))

IC50 [2, 6]: 4 µM
IGF-I Inhibition IC50 (mut)/IC50 (wt) [2]: 2.0
Compound: CC(C)C[C@@H]1NC(=O)[C@H](Cc2ccc(O)cc2)NC(=O)[C@H](Cc2c[nH]c3ccccc23)NC(=O)[C@H](CCC(=O)O)NC(=O)[C@H](C)NC(=O)[C@H](C(C)C)NC(=O)[C@@H]2CCCN2C(=O)[C@H](Cc2c[nH]c3ccccc23)NC(=O)[C@@H](NC(=O)[C@@H](NC(=O)[C@H](CCC(=O)O)NC(=O)[C@@H]2CCCN2C(=O)CN)[C@@H](C)O)CSSC[C@@H](C(=O)N[C@@H](CC(N)=O)C(=O)O)NC1=O [bp3-41] (H-GPETCWPVAEWYLCN-OH; disulfide 5-14; N-terminus and C-terminus assumed)

IC50 ([2]; BIAcore competition, read-out: IC50, inhibition of IGFBP-3 binding to IGF-I): 20 µM
Compound: CC[C@H](C)[C@H](NC(=O)CCC(=O)O)C(=O)N1CCC[C@H]1C(=O)N[C@H](C(=O)N[C@@H](CO)C(=O)N1CCC[C@H]1C(=O)N[C@@H](CC(=O)O)C(=O)N[C@@H](Cc1c[nH]c2ccccc12)C(=O)N[C@@H](Cc1ccccc1)C(=O)N[C@H](C(=O)N[C@@H](CS)C(=O)N[C@@H](CCC(N)=O)C(N)=O)C(C)C)C(C)C [bp3-108] (Suc-IPVSPDWFVCQ-NH2)

IGF-I Inhibition IC50 (mut)/IC50 (wt) [3]: >1000
Compound: CRAGPLQWLCE [bp1-04]

IGF-I Inhibition IC50 (mut)/IC50 (wt) [3]: >1000
Compound: CRAGPLQWLCEK [bp1-17]

IC50 [2, 6]: > 1000 µM
Compound: WPVAEWYLCN [bp3-24]

Compound: hGH: Recombinant human GH (NUTROPIN brand from Genentech, Inc.)
epiphyseal plate widths ([4]; 8 days): significantly (p<0.05) increased
body weight gain ([4]; Day 5, hGH 50 μg/d, IGF mutant 120 μg/day): 12.4 ± 0.9 g
AST [4, 7]: 123 ± 13 U/l
BUN [4, 7]: 15.6 ± 0.7 mg/dL
CK [4, 7]: 184 ± 29 u/l
Creatinine [4, 7]: 0.33 ± 0.02 mg/dL
Glucose [4, 7]: 192 ± 10 mg/dL
Insulin [4, 7]: 1.48 ± 0.29 ng/mL
body weight gain ([5]; IGF agonist 50 μg/day SC minipump, hGH 20 μg/day SC, or both): significant increase in body weight
absolute thymus weight ([5]; IGF agonist 50 μg/day, hGH 20 μg/day, or both): almost equal
absolute and relative heart weight ([5]; IGF agonist 10 and 50 μg, hGH 20 μg/day, or combination): slightly increased absolute heart weight and caused a fall in relative heart weight
absolute spleen weight ([5]; IGF mutant 10 and 50 μg/day, hGH 20 μg/day, or hGH plus 50 μg/day): greater than that to the IGF agonist
epiphyseal plate width ([5]; rhGH 20 μg/day): around 400 μm
